{"source": "ChEMBL document CHEMBL5137036", "about": "“Design and synthesis of highly TRAIL expression HDAC inhibitors based on ONC201 to promote apoptosis of colorectal cancer” (Eur J Med Chem, 2022)", "key": {"HCT-116 [1]": {"test_system": "HCT-116", "assay": "Induction of apoptosis in human HCT-116 cells assessed as early apoptotic cells at 0.125 uM incubated for 24 hrs by AnnexinV-FITC/PI staining based flow cytometry (reference value: 0.93 %)", "assay_type": "functional"}, "HCT-116 [2]": {"test_system": "HCT-116", "assay": "Antitumor activity against human HCT-116 cells xenografted in BALB/c mouse assessed as reduction in tumor growth at 50 mg/kg, po qd administered for 3 weeks and measured every 3 days by vernier caliper analysis", "assay_type": "functional, organism-based"}, "HCT-116 [3]": {"test_system": "HCT-116", "assay": "Induction of apoptosis in human HCT-116 cells assessed as increase in Bax protein expression incubated for 12 hrs by Western blot analysis", "assay_type": "functional, cell-based", "conditions": "dose 0.125-0.5 µM, DDE = dose-dependent effect"}, "HCT-116 [4]": {"test_system": "HCT-116", "assay": "Induction of apoptosis in human HCT-116 cells assessed as viable cells at 0.5 uM incubated for 24 hrs by AnnexinV-FITC/PI staining based flow cytometry (reference value: 93.64%)", "assay_type": "functional", "conditions": "read-out: Activity"}, "Histone deacetylase 1 [5]": {"biological_target": "T1, Histone deacetylase 1 (Homo sapiens, UniProt Q13547)", "T1 sequence (Q13547 whole entry)": "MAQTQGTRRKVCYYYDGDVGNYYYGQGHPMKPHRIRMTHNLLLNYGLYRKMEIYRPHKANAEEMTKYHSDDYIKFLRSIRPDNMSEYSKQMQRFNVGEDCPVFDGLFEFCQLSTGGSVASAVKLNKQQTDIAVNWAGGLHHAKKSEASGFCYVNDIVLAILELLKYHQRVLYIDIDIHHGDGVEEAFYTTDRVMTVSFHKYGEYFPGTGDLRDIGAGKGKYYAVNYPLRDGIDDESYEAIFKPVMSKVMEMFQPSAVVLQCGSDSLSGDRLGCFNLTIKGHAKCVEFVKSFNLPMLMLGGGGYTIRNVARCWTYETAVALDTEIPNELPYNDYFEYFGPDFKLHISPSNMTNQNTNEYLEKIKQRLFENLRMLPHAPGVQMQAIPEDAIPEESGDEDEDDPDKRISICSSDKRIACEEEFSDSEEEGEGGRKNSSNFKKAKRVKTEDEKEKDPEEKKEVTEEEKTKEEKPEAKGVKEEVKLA", "assay": "Inhibition of HDAC1 in human HCT-116 cells assessed as increase in Ac-H4 acetylation at 0.5 uM incubated for 12 hrs by Western blot analysis", "assay_type": "cell-based"}, "[6]": {"biological_target": "Histone deacetylase 3/Nuclear receptor corepressor 2 (HDAC3/NCoR2) (Homo sapiens, UniProt O15379)", "sequence (O15379 whole entry)": "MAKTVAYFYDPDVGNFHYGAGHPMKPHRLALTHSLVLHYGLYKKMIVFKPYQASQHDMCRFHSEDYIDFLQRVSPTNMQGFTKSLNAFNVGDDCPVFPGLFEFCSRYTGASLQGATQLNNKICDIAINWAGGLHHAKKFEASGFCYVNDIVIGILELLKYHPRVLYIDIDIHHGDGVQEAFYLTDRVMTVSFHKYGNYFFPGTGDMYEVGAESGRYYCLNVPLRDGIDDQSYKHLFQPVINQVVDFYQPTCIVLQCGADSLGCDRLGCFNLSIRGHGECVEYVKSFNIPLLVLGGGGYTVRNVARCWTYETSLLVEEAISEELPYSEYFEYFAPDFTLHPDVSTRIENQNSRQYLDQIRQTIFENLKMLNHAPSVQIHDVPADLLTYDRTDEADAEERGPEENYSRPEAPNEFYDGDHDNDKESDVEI", "sequence (Q9Y618 whole entry, further chain)": "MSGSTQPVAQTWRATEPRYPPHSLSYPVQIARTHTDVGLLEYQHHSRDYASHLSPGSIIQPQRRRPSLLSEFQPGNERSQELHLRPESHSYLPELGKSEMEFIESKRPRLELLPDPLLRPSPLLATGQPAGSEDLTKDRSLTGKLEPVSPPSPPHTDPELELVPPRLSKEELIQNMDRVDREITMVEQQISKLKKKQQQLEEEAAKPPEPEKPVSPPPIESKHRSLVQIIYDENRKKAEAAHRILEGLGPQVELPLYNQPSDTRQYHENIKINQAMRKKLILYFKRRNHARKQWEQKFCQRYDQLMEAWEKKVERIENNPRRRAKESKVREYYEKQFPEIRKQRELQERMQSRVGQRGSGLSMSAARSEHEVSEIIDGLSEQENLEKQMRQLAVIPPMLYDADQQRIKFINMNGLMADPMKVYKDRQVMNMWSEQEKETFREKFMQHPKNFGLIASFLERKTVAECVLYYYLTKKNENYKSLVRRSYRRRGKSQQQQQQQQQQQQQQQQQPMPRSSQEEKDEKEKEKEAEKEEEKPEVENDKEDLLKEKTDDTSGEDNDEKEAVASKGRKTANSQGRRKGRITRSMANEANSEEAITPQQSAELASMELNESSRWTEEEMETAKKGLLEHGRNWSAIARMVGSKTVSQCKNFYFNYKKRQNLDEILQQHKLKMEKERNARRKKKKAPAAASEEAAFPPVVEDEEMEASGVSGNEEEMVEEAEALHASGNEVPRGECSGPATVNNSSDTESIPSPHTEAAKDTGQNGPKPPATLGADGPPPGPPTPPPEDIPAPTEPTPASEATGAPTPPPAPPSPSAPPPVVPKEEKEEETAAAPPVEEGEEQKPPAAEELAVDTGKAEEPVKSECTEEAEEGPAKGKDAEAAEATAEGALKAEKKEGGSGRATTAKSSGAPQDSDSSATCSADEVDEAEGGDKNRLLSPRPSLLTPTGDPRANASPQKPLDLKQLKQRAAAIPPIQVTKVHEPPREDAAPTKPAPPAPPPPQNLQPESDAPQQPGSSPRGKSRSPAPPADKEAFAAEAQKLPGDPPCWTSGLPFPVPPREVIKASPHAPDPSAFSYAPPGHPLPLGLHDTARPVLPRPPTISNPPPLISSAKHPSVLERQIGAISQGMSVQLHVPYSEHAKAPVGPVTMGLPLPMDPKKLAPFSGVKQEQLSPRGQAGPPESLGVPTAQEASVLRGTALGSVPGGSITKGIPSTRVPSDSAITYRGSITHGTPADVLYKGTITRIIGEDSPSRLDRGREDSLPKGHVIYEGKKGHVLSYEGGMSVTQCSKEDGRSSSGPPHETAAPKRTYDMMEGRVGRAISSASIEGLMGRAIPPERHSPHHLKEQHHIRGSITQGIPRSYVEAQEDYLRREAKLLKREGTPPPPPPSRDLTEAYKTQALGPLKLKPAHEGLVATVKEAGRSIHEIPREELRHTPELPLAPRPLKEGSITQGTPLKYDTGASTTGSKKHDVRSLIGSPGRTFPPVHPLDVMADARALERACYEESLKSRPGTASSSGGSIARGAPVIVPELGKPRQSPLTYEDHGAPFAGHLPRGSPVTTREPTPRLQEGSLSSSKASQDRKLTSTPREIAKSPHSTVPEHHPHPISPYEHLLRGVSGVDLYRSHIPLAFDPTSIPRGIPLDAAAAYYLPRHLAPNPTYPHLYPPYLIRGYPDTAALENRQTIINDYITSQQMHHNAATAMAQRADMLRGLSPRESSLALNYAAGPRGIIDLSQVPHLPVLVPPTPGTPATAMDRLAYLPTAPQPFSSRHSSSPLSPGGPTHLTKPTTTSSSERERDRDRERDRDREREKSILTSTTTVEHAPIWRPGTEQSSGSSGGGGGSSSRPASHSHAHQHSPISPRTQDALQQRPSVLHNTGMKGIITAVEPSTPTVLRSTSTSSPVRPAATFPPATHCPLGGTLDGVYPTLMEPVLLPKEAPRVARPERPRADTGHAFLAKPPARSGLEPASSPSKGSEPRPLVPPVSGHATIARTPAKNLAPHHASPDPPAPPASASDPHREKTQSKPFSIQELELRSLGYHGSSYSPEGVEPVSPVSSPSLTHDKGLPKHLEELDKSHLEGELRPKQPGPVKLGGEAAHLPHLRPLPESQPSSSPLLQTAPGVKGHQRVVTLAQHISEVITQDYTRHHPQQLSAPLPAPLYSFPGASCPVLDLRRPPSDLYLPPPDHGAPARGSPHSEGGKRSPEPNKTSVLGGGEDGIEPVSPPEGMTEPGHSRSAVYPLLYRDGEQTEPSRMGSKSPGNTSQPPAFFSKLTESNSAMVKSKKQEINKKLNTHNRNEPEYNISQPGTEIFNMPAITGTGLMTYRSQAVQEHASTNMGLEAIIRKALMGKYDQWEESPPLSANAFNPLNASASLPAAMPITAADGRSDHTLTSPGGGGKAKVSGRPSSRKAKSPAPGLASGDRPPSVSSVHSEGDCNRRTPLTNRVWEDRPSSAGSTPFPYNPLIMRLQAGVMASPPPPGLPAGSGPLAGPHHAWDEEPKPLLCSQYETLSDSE", "assay": "Inhibition of human HDAC3/NcoR2 using RHKKAc fluorogenic peptide as substrate preincubated for 10 mins followed by substrate addition by fluorescence based analysis", "assay_type": "protein-complex assay"}, "HCT-116 [7]": {"test_system": "HCT-116", "assay": "Induction of apoptosis in human HCT-116 cells assessed as decrease in Bcl2 protein expression incubated for 12 hrs by Western blot analysis", "assay_type": "functional, cell-based", "conditions": "dose 0.125-0.5 µM, DDE = dose-dependent effect"}, "[8]": {"assay": "Toxicity in BALB/c mouse xenografted with human HCT-116 cells assessed as reduction in body weight at 12.5 to 25 mg/kg, po qd administered for 3 weeks", "assay_type": "organism-based", "conditions": "in vivo, 504 h, dose 12.5-25 mg/kg"}, "HCT-116 [9]": {"test_system": "HCT-116", "assay": "Induction of apoptosis in human HCT-116 cells assessed as late apoptotic cells at 0.125 uM incubated for 24 hrs by AnnexinV-FITC/PI staining based flow cytometry (reference value: 0.82 %)", "assay_type": "functional"}, "HCT-116 [10]": {"test_system": "HCT-116", "assay": "Effect on ac-H3 protein expression in human HCT-116 cells incubated for 12 hrs by Western blot analysis", "assay_type": "functional, cell-based", "conditions": "dose 0.125-0.5 µM, DDE = dose-dependent effect"}, "HCT-116 [11]": {"test_system": "HCT-116", "assay": "Induction of apoptosis in human HCT-116 cells assessed as early apoptotic cells at 0.5 uM incubated for 24 hrs by AnnexinV-FITC/PI staining based flow cytometry (reference value: 0.93 %)", "assay_type": "functional"}, "HCT-116 [12]": {"test_system": "HCT-116", "assay": "Upregulation of TRAIL mRNA expression in human HCT-116 cells at 0.25 uM incubated for 12 hrs by RT-PCR analysis", "assay_type": "functional, cell-based"}, "HCT-116 [13]": {"test_system": "HCT-116", "assay": "Induction of apoptosis in human HCT-116 cells assessed as dead cells at 0.5 uM incubated for 24 hrs by AnnexinV-FITC/PI staining based flow cytometry (reference value: 4.62 %)", "assay_type": "functional"}, "Histone deacetylase 1 [14]": {"biological_target": "T1, Histone deacetylase 1", "assay": "Inhibition of HDAC1 in human HCT-116 cells assessed as increase in TRAIL protein expression at 0.5 uM incubated for 12 hrs by Western blot analysis", "assay_type": "cell-based"}, "HCT-116 [15]": {"test_system": "HCT-116", "assay": "Induction of apoptosis in human HCT-116 cells assessed as viable cells at 0.125 uM incubated for 24 hrs by AnnexinV-FITC/PI staining based flow cytometry (reference value: 93.64%)", "assay_type": "functional", "conditions": "read-out: Activity"}, "[16]": {"assay": "Toxicity in BALB/c mouse xenografted with human HCT-116 cells assessed as morphological changes in liver at 12.5 to 25 mg/kg, po qd administered for 21 days by H & E staining based microscopic analysis", "assay_type": "organism-based", "conditions": "in vivo, 504 h, dose 12.5-25 mg/kg, time 21 day"}, "HCT-116 [17]": {"test_system": "HCT-116", "assay": "Induction of apoptosis in human HCT-116 cells assessed as viable cells at 0.25 uM incubated for 24 hrs by AnnexinV-FITC/PI staining based flow cytometry (reference value: 93.64%)", "assay_type": "functional", "conditions": "read-out: Activity"}, "HCT-116 [18]": {"test_system": "HCT-116", "assay": "Induction of apoptosis in human HCT-116 cells assessed as late apoptotic cells at 0.5 uM incubated for 24 hrs by AnnexinV-FITC/PI staining based flow cytometry (reference value: 0.82 %)", "assay_type": "functional"}, "HCT-116 [19]": {"test_system": "HCT-116", "assay": "Induction of apoptosis in human HCT-116 cells assessed as dead cells at 0.25 uM incubated for 24 hrs by AnnexinV-FITC/PI staining based flow cytometry (reference value: 4.62 %)", "assay_type": "functional"}, "Histone deacetylase 8": {"biological_target": "T2, Histone deacetylase 8 (Homo sapiens, UniProt Q9BY41)", "T2 sequence (Q9BY41 whole entry)": "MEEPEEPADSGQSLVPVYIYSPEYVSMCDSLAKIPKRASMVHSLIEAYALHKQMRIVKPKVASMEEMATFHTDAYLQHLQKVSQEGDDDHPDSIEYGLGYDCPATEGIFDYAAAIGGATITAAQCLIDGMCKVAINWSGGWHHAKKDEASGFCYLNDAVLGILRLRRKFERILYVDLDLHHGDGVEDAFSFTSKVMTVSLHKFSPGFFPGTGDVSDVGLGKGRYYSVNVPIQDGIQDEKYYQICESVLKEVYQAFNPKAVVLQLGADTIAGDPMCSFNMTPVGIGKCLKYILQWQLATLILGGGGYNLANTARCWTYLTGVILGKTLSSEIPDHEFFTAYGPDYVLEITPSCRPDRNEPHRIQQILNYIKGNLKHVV", "assay": "Inhibition of human HDAC8 using RHKAcKAc as fluorogenic substrate preincubated for 10 mins followed by substrate addition by fluorescence based analysis"}, "HCT-116 [20]": {"test_system": "HCT-116", "assay": "Effect on DR5 protein expression in human HCT-116 cells incubated for 12 hrs by Western blot analysis", "assay_type": "functional, cell-based", "conditions": "dose 0.125-0.5 µM, DDE = dose-dependent effect"}, "HCT-116 [21]": {"test_system": "HCT-116", "assay": "Induction of apoptosis in human HCT-116 cells assessed as late apoptotic cells at 0.25 uM incubated for 24 hrs by AnnexinV-FITC/PI staining based flow cytometry (reference value: 0.82 %)", "assay_type": "functional"}, "HCT-116 [22]": {"test_system": "HCT-116", "assay": "Induction of cell cycle arrest in human HCT-116 cells assessed as accumulation of cells at S phase incubated for 12 hrs by propidium iodide staining based flow cytometric analysis", "assay_type": "functional", "conditions": "dose 0.125-0.5 µM, DDE = dose-dependent effect"}, "Histone deacetylase 4": {"biological_target": "Histone deacetylase 4 (Homo sapiens, UniProt P56524)", "sequence (P56524 whole entry)": "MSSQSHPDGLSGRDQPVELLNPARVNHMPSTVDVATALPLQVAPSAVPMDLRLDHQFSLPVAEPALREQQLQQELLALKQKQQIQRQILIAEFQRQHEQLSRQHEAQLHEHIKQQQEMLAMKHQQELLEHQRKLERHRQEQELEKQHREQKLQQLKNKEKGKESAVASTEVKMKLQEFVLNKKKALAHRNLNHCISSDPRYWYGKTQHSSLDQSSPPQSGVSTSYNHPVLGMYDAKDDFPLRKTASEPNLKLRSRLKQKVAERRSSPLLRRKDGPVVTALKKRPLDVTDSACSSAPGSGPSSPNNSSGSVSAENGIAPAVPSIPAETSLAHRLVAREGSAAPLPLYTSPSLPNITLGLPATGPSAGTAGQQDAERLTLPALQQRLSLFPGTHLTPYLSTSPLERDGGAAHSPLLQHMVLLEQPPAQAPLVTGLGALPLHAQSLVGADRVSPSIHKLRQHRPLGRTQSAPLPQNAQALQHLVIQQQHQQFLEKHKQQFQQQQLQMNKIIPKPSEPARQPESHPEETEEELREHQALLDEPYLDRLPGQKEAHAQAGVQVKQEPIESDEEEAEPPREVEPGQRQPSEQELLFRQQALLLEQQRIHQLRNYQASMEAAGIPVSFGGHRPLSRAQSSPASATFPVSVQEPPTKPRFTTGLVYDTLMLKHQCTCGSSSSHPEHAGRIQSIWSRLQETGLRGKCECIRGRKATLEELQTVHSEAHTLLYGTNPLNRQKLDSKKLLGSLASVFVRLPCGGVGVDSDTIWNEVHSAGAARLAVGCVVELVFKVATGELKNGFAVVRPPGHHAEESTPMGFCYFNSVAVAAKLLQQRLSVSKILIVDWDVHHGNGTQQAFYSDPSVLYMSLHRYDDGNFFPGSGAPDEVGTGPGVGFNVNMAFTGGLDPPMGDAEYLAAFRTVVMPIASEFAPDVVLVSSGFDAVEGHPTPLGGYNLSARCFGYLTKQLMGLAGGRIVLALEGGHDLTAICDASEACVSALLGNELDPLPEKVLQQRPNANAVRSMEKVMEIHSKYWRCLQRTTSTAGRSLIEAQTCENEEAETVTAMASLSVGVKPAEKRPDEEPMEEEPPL", "assay": "Inhibition of human HDAC4 using Boc-Lys(trifluoroacetyl)-AMC as fluorogenic substrate preincubated for 10 mins followed by substrate addition by fluorescence based analysis"}, "HCT-116 [23]": {"test_system": "HCT-116", "assay": "Effect on TRAIL protein expression in human HCT-116 cells incubated for 12 hrs by Western blot analysis", "assay_type": "functional, cell-based", "conditions": "dose 0.125-0.5 µM, DDE = dose-dependent effect"}, "[24]": {"assay": "Toxicity in BALB/c mouse xenografted with human HCT-116 cells assessed as morphological changes in lung at 12.5 to 25 mg/kg, po qd administered for 21 days by H & E staining based microscopic analysis", "assay_type": "organism-based", "conditions": "in vivo, 504 h, dose 12.5-25 mg/kg, time 21 day"}, "[25]": {"assay": "Toxicity in BALB/c mouse xenografted with human HCT-116 cells assessed as morphological changes in spleen at 12.5 to 25 mg/kg, po qd administered for 21 days by H & E staining based microscopic analysis", "assay_type": "organism-based", "conditions": "in vivo, 504 h, dose 12.5-25 mg/kg, time 21 day"}, "HCT-116 [26]": {"test_system": "HCT-116", "assay": "Antiproliferative activity against human HCT-116 cells assessed as inhibition of cell growth incubated for 72 hrs by luminescence based analysis", "assay_type": "functional", "conditions": "HCT-116, 72 h"}, "Histone deacetylase 1 [27]": {"biological_target": "T1, Histone deacetylase 1", "assay": "Inhibition of human HDAC1 using RHKKAc fluorogenic peptide as substrate preincubated for 10 mins followed by substrate addition by fluorescence based analysis"}, "HCT-116 [28]": {"test_system": "HCT-116", "assay": "Upregulation of DR5 mRNA expression in human HCT-116 cells at 0.25 uM incubated for 12 hrs by RT-PCR analysis", "assay_type": "functional, cell-based"}}, "note": "Active and inactive are the calls of the source. The rule behind the calls is not given here.", "data": [{"smiles": "COc1ccccc1CN1C(=O)C2=C(CCN(Cc3ccc(C(=O)Nc4ccccc4N)cc3)C2)N2CCN=C12", "values": [{"measurement": "Activity", "setting": "HCT-116 [1]", "value": 0.87, "unit": "%"}, {"measurement": "Activity", "setting": "HCT-116 [2]", "value": "Active"}, {"measurement": "Activity", "setting": "HCT-116 [3]", "value": "Dde"}, {"measurement": "viability at 0.5 µM", "setting": "HCT-116 [4]", "value": 87.2, "unit": "%"}, {"measurement": "inhibition", "setting": "Histone deacetylase 1 [5]", "value": "Active"}, {"measurement": "IC50", "setting": "[6]", "value": 589, "unit": "nM"}, {"measurement": "Activity", "setting": "HCT-116 [7]", "value": "Dde"}, {"measurement": "Activity", "setting": "[8]", "value": "Non-Toxic"}, {"measurement": "Activity", "setting": "HCT-116 [9]", "value": 1.35, "unit": "%"}, {"measurement": "Activity", "setting": "HCT-116 [10]", "value": "Dde"}, {"measurement": "Activity", "setting": "HCT-116 [11]", "value": 1.22, "unit": "%"}, {"measurement": "Activity", "setting": "HCT-116 [12]", "value": "Active"}, {"measurement": "Activity", "setting": "HCT-116 [13]", "value": 9.59, "unit": "%"}, {"measurement": "inhibition", "setting": "Histone deacetylase 1 [14]", "value": "Active"}, {"measurement": "viability at 0.125 µM", "setting": "HCT-116 [15]", "value": 91.5, "unit": "%"}, {"measurement": "Activity", "setting": "[16]", "value": "Non-Toxic"}, {"measurement": "viability at 0.25 µM", "setting": "HCT-116 [17]", "value": 93, "unit": "%"}, {"measurement": "Activity", "setting": "HCT-116 [18]", "value": 2, "unit": "%"}, {"measurement": "Activity", "setting": "HCT-116 [19]", "value": 4.06, "unit": "%"}, {"measurement": "IC50", "setting": "Histone deacetylase 8", "value": "> 10000", "unit": "nM"}, {"measurement": "Activity", "setting": "HCT-116 [20]", "value": "Dde"}, {"measurement": "Activity", "setting": "HCT-116 [21]", "value": 1.82, "unit": "%"}, {"measurement": "Activity", "setting": "HCT-116 [22]", "value": "Dde"}, {"measurement": "IC50", "setting": "Histone deacetylase 4", "value": "> 10000", "unit": "nM"}, {"measurement": "Activity", "setting": "HCT-116 [23]", "value": "Dde"}, {"measurement": "Activity", "setting": "[24]", "value": "Non-Toxic"}, {"measurement": "Activity", "setting": "[25]", "value": "Non-Toxic"}, {"measurement": "IC50", "setting": "HCT-116 [26]", "value": 653, "unit": "nM"}, {"measurement": "IC50", "setting": "Histone deacetylase 1 [27]", "value": 156, "unit": "nM"}, {"measurement": "Activity", "setting": "HCT-116 [28]", "value": "Active"}]}]}
